Reference: US10709757B2, “Pharmaceutical composition for anti-angiogenesis containing cyclic pentadepsipeptide as an effective ingredient” (CHUNG-ANG UNIVERSITY INDUSTRY-ACADEMIC COOPERATION …, priority 2017, dated 2020)

Columns and labels:
[1] = system: human umbilical vein endothelial cells (HUVECs); assay: MTT assay, VEGF-induced proliferation of HUVECs; type: cell-based; settings: 24 hours
Procedure: After being cultured to 80-90% confluence, human umbilical vein endothelial cells (HUVECs) were additionally cultured in an M199 medium supplemented with 1% FBS for 6 hours, and then treated with neo-N-methylsansalvamide (NMSSV) at various concentrations in the presence of VEGF (50 ng/ml) for 24 hours. Effects of neo-N-methylsansalvamide (NMSSV) on the viability and growth inhibition of the HUVEC cells were measured by a 3-(4,5-dimethylthiazol-2-yl)-2,5-diphenyltetrazolium bromide (MTT) assay method.
In order to identify the effects of the neo-N-methylsansalvamide (NMSSV, Peak 2, hereinafter, referred to as P2) of the present invention on the proliferation in VEGF-induced HUVECs, it was confirmed that cells were proliferated by culturing the cells with P2 at various concentrations in the presence or absence of VEGF (50 ng/ml) by the method in Example 1-2 and performing an MTT assay 24 hours after the culture.

[2] = system: ERK1/2; assay: Phosphorylation assay of ERK1/2 in VEGF-induced HUVECs (Western); type: cell-based, human; settings: VEGF 50 ng/ml, FIG. 2
Procedure: (§1) After being cultured to 80-90% confluence, human umbilical vein endothelial cells (HUVECs) were additionally cultured in an M199 medium supplemented with 1% FBS for 6 hours, and then treated with neo-N-methylsansalvamide (NMSSV) at various concentrations in the presence of VEGF (50 ng/ml) for 10 minutes. Effects of neo-N-methylsansalvamide (NMSSV) in the phosphorylation assay of ERK1/2, AKT, and eNOS of HUVEC cells were measured by a Western assay method using each antibody.
(§2) In this case, the HUVECs were pre-cultured for 10 minutes prior to the VEGF stimulation and along with P2 for 40 minutes.

[3] = system: AKT; assay: Phosphorylation assay of AKT in VEGF-induced HUVECs (Western); type: cell-based, human; settings: VEGF 50 ng/ml, FIG. 2
Procedure: as §1, §2

[4] = system: eNOS; assay: Phosphorylation assay of eNOS in VEGF-induced HUVECs (Western); type: cell-based, human; settings: VEGF 50 ng/ml, FIG. 2
Procedure: as §1, §2

[5] = system: HUVECs; assay: Colony tube formation assay; type: cell-based, human; settings: Matrigel, VEGF 50 ng/ml, 24 hours, FIG. 3
Procedure: After being cultured to 80-90% confluence in a plate covered with Matrigel (Collaborative Biomedical Products, Bedford, Mass.), HUVECs were additionally cultured in an M199 medium supplemented with 1% FBS for 6 hours, and then treated with neo-N-methylsansalvamide (NMSSV) at various concentrations in the presence of VEGF (50 ng/ml) for 24 hours. The tube formation was photographed by using a phase-contrast microscope.
The formation of capillary-like tubular structures by endothelial cells is one of the most essential steps in the development of angiogenesis, and it was checked whether P2 inhibited the formation of capillary-like network structures in HUVECs in Matrigel.

[6] = system: HUVECs; assay: Wound-healing migration assay; type: cell-based, human; settings: VEGF 50 ng/ml, 24 hours, FIG. 4
Procedure: When cells were grown to approximately 90%, the medium was suctioned, and then a line was created by steadily scratching the bottom of the plate with a yellow tip, and then the cells were washed with PBS and treated with neo-N-methylsansalvamide (NMSSV) at various concentrations in the presence of VEGF (50 ng/ml) for 24 hours. After 24 hours, the tendency of cells to migrate at each treatment concentration was photographed and observed by marking the position under a microscope at 40× magnification.
(§3) Subsequently, the migration and invasion of endothelial cells is also a main step of angiogenesis leading to the formation of new blood vessels, so that effects of P2 on mobility and invasiveness of VEGF-induced HUVECs were checked by using a wound-healing migration assay and a Transwell invasion assay.

[7] = system: HUVECs; assay: Transwell invasion assay; type: cell-based, human; settings: VEGF 50 ng/ml, 24 hours, FIG. 5
Procedure: An experiment was performed by using a modified Boyden chamber prepared with a polycarbonate nucleopore membrane (Corning, Corning, N.Y.). After trypsin-EDTA was added to the cells, the cells were collected, the cells were measured by using a hematocytometer, and then the concentration was set to 4×10^5 cells/ml, and the cells were respectively aliquoted. After 700 μl of the medium was added to the bottom well and an insert was placed thereon, 100 μl of cells prepared with neo-N-methylsansalvamide (NMSSV) at various concentrations were aliquoted into the insert in the presence of VEGF (50 ng/ml) and cultured in an incubator at 37° C. for 24 hours. […] After the cells, which succeeded in passing through the gelatin, were fixed with 4% paraformaldehyde, the cells were stained by using crystal violet, washed twice with PBS, and then placed on a glass plate. Thereafter, the cells were observed by using a microscope, and arbitrary five points were marked, photographed, and observed.
as §3

[8] = system: mouse aortic ring; assay: Aortic ring assay (ex vivo VEGF-induced vascularization); settings: in the presence of VEGF, FIG. 6
Procedure: 150 μl of Matrigel was put into a 48-well plate, uniformly spread by shaking the 48-well plate, and hardened in an incubator at 37° C. for 30 minutes. After a C57BL/6 mouse was over-anesthetized with ether and sacrificed, the aorta was extracted and washed with PBS to remove the fat, the resulting aorta was transferred to human endothelial-SFM and excised by using micro scissors. The excised aorta was placed on the hardened Matrigel, 50 μl of Matrigel was dropped on the aorta tissue, and then hardened in an incubator at 37° C. for 30 minutes. 200 μl of a medium including neo-N-methylsansalvamide (NMSSV) and VEGF was each added, and cells were observed while being cultured in a CO2 incubator at 37° C. After treatment with the test material, the cells were cultured for 14 days. On Day 7 and Day 14 of the culture, the cells were observed and photographed by an invert microscope (OLYMPUS, CKX41), and the lengths of the blood vessels produced were measured by photographing the aorta with the Toupview program (OLYMPUS, ver.3.5).
Based on the results in the Examples, the effects of P2 on ex vivo VEGF-induced neovascularization were identified, so that an aortic ring assay was performed in order to check the effects of P2 on the formation of capillary vessels in the presence of VEGF.

[9] = system: C57BL/6 mice; assay: Matrigel plug assay (in vivo VEGF-induced angiogenesis); design: species or system mouse; settings: seven days, FIG. 7
Procedure: A test material administration group and a VEGF (50 ng/ml) administration group were established, and each group consisted of six 8-week-old C57BL/6 mice. 0.5 ml of Matrigel, 50 U/ml of heparin, and a test material were formulated for use at each concentration right before the administration, and formulated such that VEGF was also included in the test material administration group. Seven days after the administration, a Matrigel plug was extracted, a photograph was taken, the amount of hemoglobin was measured by using the Drabkin method (Drabkin reagent kit 525, Sigma-Aldrich, Louis, Mo.), and purification was performed.
0.6 ml of the test material solution was administered to the dorsal hypodermis of each test animal by using a 1-ml syringe.
Thus, additionally through an in vivo Matrigel plug assay, the effects of P2 on in vivo angiogenesis were checked.

[10] = system: C57BL/6 mice; assay: Laser-induced choroidal neovascularization (CNV) mouse model, angiography; type: in vivo; settings: intravitreal injection once, 14 days after laser, vs control, FIG. 8
Procedure: (§4) More specifically, male 6-week-old C57BL/6 mice were purchased from Orient Bio Inc., and acclimated for 1 week, and then anesthetized, and the pupils were dilated. Subsequently, an animal model was prepared by irradiating the space around the ophthalmic nerves in 12, 3, 6, and 9 o'clock directions with diode green laser (532 nm, 200 mW, 0.8 sec, 50 μm, and photocoagulator) to cause injury to 3 to 4 sites per eyeball.
(§5) After injury was caused to mice with laser by the method in Example 1-9-1 and the mice were anesthetized one day later, 2 μL was administered into the vitreous body of both eyes once (intravitreal injection) using a 34 gauge needle. Subsequently, 14 days after the irradiation with laser, angiography and staining and imaging of CNV were performed.
14 days after the irradiation with laser, the mice experienced mydriasis and were systemically anesthetized by injecting 80 mg/kg of alfaxalone into the abdominal cavities of the mice, and then 1% fluorescein was intraperitoneally injected into the mice. And then, after the mice were photographed by using a Micron IV device, the CNV lesion area was measured by using Image-Pro Plus software.
Accordingly, in the animal models prepared by the methods in Examples 1-9, the degree to which the contrast medium was leaked according to the administration of NMSSV was compared with that of the control.

[11] = system: C57BL/6 mice; assay: Laser-induced CNV mouse model, isolectin B4 immunofluorescence staining; type: in vivo; settings: intravitreal injection once, 2 weeks after laser, vs control, FIG. 9
Procedure: as §4, §5
14 days after the irradiation with laser, eyeballs were extracted from the mice, and then fixed in 4% paraformaldehyde for 1 hour. […] Thereafter, after the complex tissue was washed with PBS, the tissue with a fluorescence mounting medium (Vector, USA) was fixed on a slide glass, and then covered with a cover slip, and the tissue was observed and photographed through a fluorescence microscope. The CNV lesion area was measured by using Image-Pro Plus software. […]

Structure (SMILES): CC(C)CC1OC(=O)[C@H](Cc2ccccc2)NC(=O)[C@H](CC(C)C)NC(=O)[C@H](C(C)C)NC(=O)[C@H](CC(C)C)N(C)C1=O (single isomer, unassigned) [P2, neo-N-methylsansalvamide]
- proliferation of HUVECs induced by VEGF ([1]; VEGF 50 ng/ml, MTT, FIG. 1): dose-dependently inhibited
- apoptosis (cytotoxicity) in HUVECs ([1]; at 5 μg/ml of P2, MTT): significant apoptosis was not detected
- phosphorylation of ERK1/2 induced by VEGF [2]: inhibited the phosphorylation
- phosphorylation of AKT induced by VEGF [3]: inhibited the phosphorylation
- phosphorylation of eNOS induced by VEGF [4]: inhibited the phosphorylation
- VEGF-induced colony tube formation in HUVECs [5]: significantly inhibited
- VEGF-induced migration of HUVECs [6]: significantly decreased
- invasion of HUVECs due to VEGF through Matrigel [7]: blocked
- formation of VEGF-induced blood vessels in a mouse aortic ring [8]: significantly inhibited
- content of hemoglobin of Matrigel plug treated with VEGF ([9]; Drabkin method): continuously inhibited the content of hemoglobin
- formation of new blood vessels in Matrigel plug ([9]; compared to VEGF alone, subcutaneous plug): the formation of new blood vessels was decreased
- CNV lesion area (angiography) [10]: the CNV lesion area is decreased
- fluorescein leakage [10]: the fluorescein leakage was decreased
- CNV lesion area (isolectin B4 stained area) [11]: significantly decreased
